In PMC4138406, “In vitro and in vivo anti-malarial activity of limonoids isolated from the residual seed biomass from Carapa guianensis (andiroba) oil production” (Malaria Journal, 2014):
≈ marks a conversion by molar mass, not a printed value. Where “and” joins values, the source holds several entries; their conditions need not be identical. Equal values may be shown once. Where a name gives a salt, the structure may show the parent alone. Read-outs that look alike come from different tables or passages of the source.

Columns and labels:
[1] = tested on: Plasmodium berghei NK65 strain; test: Peters 4-day suppressive test in infected BALB/c mice; type: in vivo, Plasmodium berghei in BALB/c mice
Protocol: Adult BALB/c mice (22 ± 3 g weight) were used for the in vivo anti-malarial tests and received water and food ad libitum. In vivo tests were performed using ‘Guidelines for Ethical Conduct in The Care and Use of Animals of the National Institute for Amazon Research (INPA)’.
Limonoids 3 and 4 were assayed for in vivo anti-malarial activity in the Peters 4-day suppressive test against the Plasmodium berghei NK65 strain in BALB/c female mice, each inoculated with 1 × 10^5 parasitized red blood cells. The mice were randomly divided into groups of five individuals and individual […] evaluation of parasitaemia versus controls (negative control groups were treated with 2% DMSO vehicle and positive control groups with chloroquine) on days 5 and 7 following an established procedure. Mortality was monitored in all groups for four weeks after inoculation. Two independent in vivo experiments were performed.

[2] = tested on: Plasmodium falciparum K1 strain; test: In vitro anti-plasmodial assay (micro test), growth inhibition of P. falciparum K1; type: cell-based; conditions: for IC50: Plasmodium falciparum, read-out: IC50 Plasmodium falciparum K1; for Result Plasmodium falciparum K1: activity class from IC50, K1 strain
Protocol: Briefly, this procedure involved preparing 5 mg/mL stock solutions of each compound in dimethyl sulfoxide (DMSO). The stock solutions were diluted to provide test solutions having concentrations in the range 0.13-100 μg/mL. Test solutions were transferred to 96-well test plates containing parasitized red blood cells with initial 2% haematocrit and 1% parasitaemia. Each sample was evaluated in duplicate and the test plate was incubated for 48 h at 37°C. After incubation, quantification of parasites was achieved by optical microscopy on blood smears from each well [27].

MRC-5 human fibroblasts = test: Cytotoxicity assay (AlamarBlue) on MRC-5 human fibroblasts; type: cell-based
Protocol: The MRC-5 cell line of human fibroblasts was grown in Dulbecco’s Modified Eagle’s Medium (DMEM) supplemented with 10% fetal bovine serum, 2 mM glutamine, 100 μg/mL streptomycin and 100 U/mL penicillin, and incubated at 37°C with a 5% atmosphere of CO2. For assays, the cells were plated in 96-well plates (2.5 × 10^4 cells/well) and the AlamarBlue™ assay was performed using a previously described procedure. After incubation for 24 h, compounds 1-5 were individually dissolved in DMSO and the resulting solutions were diluted in culture medium. The resulting dilute solutions of each sample were added to wells at final (well) concentrations of 1.56-100 μg/mL. Control groups had final well concentrations of 0.1% DMSO. The plates were further incubated for 48 h. 3 h before the end of the incubation period, AlamarBlue™ (10 μL) was added to each well. The fluorescent signal was monitored with a multiplate reader using 530-560 nm excitation and 590 nm emission wavelengths.

[3] = tested on: FCR-3 strain of P. falciparum; set-up: method as in doi:10.1016/j.tet.2011.12.076; conditions: read-out: IC50 against the FCR-3 strain of P. falciparum; cited from earlier work
[4] = tested on: W2 strain of P. falciparum; conditions: cited from earlier work
[5] = tested on: K1 and FCR-3 strains of P. falciparum; conditions: earlier studies; read-out: IC50 against the K1 and FCR-3 strains of P. falciparum; cited from earlier work
P. berghei strain ANKA = conditions: cited from earlier work
[6] = tested on: W2, D6 and FCR-3 strains of P. falciparum; set-up: method as in doi:10.1016/j.tet.2011.12.076, PMID 9134742, doi:10.1111/j.1744-7348.2003.tb00279.x; conditions: range over strains; read-out: IC50 against W2, D6 and FCR-3 strains of P. falciparum; cited from earlier work
P. falciparum D6 = tested on: P. falciparum D6; set-up: method as in PMID 9134742; conditions: cited from earlier work
[7] = set-up: method as in PMID 12570769; conditions: cited from earlier work
Plasmodium vinckei = tested on: Plasmodium vinckei; set-up: method as in PMID 23433124; conditions: cited from earlier work
[8] = MRC5, MRC-5, 48 h, read-out: IC50 Human fibroblasts MRC-5
[9] = 50 mg/kg/day, vs untreated controls
[10] = 100 mg/kg/day, vs untreated controls

What does the source list for `CCN(CC)CCCC(C)Nc1ccnc2cc(Cl)ccc12` (stereo not drawn) [chloroquine diphosphate, reference compound]?
Average survival time ± SD Oral ([1]; 5 mg/kg/day): >40 days; % Parasite inhibition Oral 5th day ([1]; 5 mg/kg/day): 100%; % Parasite inhibition Oral 7th day ([1]; 5 mg/kg/day): 98%; Average survival time ± SD Subcutaneous ([1]; 5 mg/kg/day): >40 days; % Parasite inhibition Subcutaneous 5th day ([1]; 5 mg/kg/day): 99%; % Parasite inhibition Subcutaneous 7th day ([1]; 5 mg/kg/day): 99%; IC50 ([2]; K1, 48 h): 0.33 µM; Result Plasmodium falciparum K1 [2]: A (0.1 < IC50 ≤ 5 μM = active (A))

With `CC(=O)O[C@@H]1C2C(C)(C)C(=O)C=C[C@]2(C)C2CC[C@@]3(C)[C@H](c4ccoc4)C(=O)[C@H]4O[C@]43[C@]2(C)[C@@H]1OC(C)=O` (stereo partly drawn) [compound 1, 6α-acetoxyepoxyazadiradione] as the molecule, how does the IC50 ([2]; K1 strain, 48 h incubation) read?
Its IC50 is 15.4 µM.

What about the “Result Plasmodium falciparum K1” value [2] of the same molecule?
The value was “MA (5 < IC50 ≤ 20 μM = moderately active (MA))”.

What about the IC50 (MRC-5 human fibroblasts; [8]) of the same molecule?
Its IC50 is > 191 µM.

Which IC50 ([2]; K1 strain, 48 h incubation) does the source give for `C=C1[C@@H]([C@@]2(C)C=CC(=O)C(C)(C)[C@@H]2CC(=O)OC)CC[C@@]2(C)[C@H](c3ccoc3)OC(=O)[C@H]3O[C@]132` [compound 2, andirobin] here?
Its IC50 is 15.3 µM.

What about the “Result Plasmodium falciparum K1” value [2] of the same molecule?
The value was “MA (5 < IC50 ≤ 20 μM = moderately active (MA))”.

What about the IC50 (MRC-5 human fibroblasts; [8]) of the same molecule?
The IC50 was > 203 µM.

What does the source list for `CC(=O)O[C@@H]1C2C(C)(C)C(=O)C=C[C@]2(C)C2CC[C@@]3(C)[C@H](c4ccoc4)OC(=O)[C@H]4O[C@]43[C@]2(C)[C@@H]1OC(C)=O` (stereo partly drawn) [compound 3, 6α-acetoxygedunin]?
Average survival time ± SD Oral ([1]; 50 mg/kg/day): 20 ± 3 days; % Parasite inhibition Oral 5th day [1, 9]: 40% and 40.2%; % Parasite inhibition Oral 7th day ([1]; 50 mg/kg/day): 34.7%; Average survival time ± SD Subcutaneous ([1]; 50 mg/kg/day): 21 ± 2 days; % Parasite inhibition Subcutaneous 5th day ([1]; 50 mg/kg/day): 34.4%; % Parasite inhibition Subcutaneous 7th day ([1]; 50 mg/kg/day): 16.8%; Average survival time ± SD Oral ([1]; 100 mg/kg/day): 24 ± 3 days; % Parasite inhibition Oral 5th day [1, 10]: 66% and 65.7%; % Parasite inhibition Oral 7th day ([1]; 100 mg/kg/day): 46.3%; Average survival time ± SD Subcutaneous ([1]; 100 mg/kg/day): 22 ± 4 days; % Parasite inhibition Subcutaneous 5th day ([1]; 100 mg/kg/day): 44.2%; % Parasite inhibition Subcutaneous 7th day ([1]; 100 mg/kg/day): 30.4%; IC50 [3]: 2.8 µM; IC50 ([2]; K1 strain, 48 h incubation): 7 µM; Result Plasmodium falciparum K1 [2]: MA (5 < IC50 ≤ 20 μM = moderately active (MA)); IC50 (MRC-5 human fibroblasts; [8]): > 185 µM

Which “Average survival time ± SD Oral” value ([1]; 50 mg/kg/day) does the source give for `CC1(C)C(=O)C=C[C@@]2(C)C1CC(=O)[C@]1(C)C2CC[C@@]2(C)[C@H](c3ccoc3)OC(=O)[C@H]3O[C@]321` (stereo partly drawn) [compound 4, 7-deacetoxy-7-oxogedunin] here?
Its value is 20 ± 2 days.

And the “% Parasite inhibition Oral 5th day” value [1, 9]?
Its value is 19.3%.

What about the “% Parasite inhibition Oral 7th day” value ([1]; 50 mg/kg/day) of the same molecule?
The value was 0%.

And the “Average survival time ± SD Subcutaneous” value ([1]; 50 mg/kg/day)?
The value was 21 ± 4 days.

And the “% Parasite inhibition Subcutaneous 5th day” value ([1]; 50 mg/kg/day)?
The value was 29.2%.

What about the “% Parasite inhibition Subcutaneous 7th day” value ([1]; 50 mg/kg/day) of the same molecule?
The value was 0%.

And the “Average survival time ± SD Oral” value ([1]; 100 mg/kg/day)?
The value was 21 ± 3 days.

And the “% Parasite inhibition Oral 5th day” value [1, 10]?
The value was 40% and 40.3%.

And the “% Parasite inhibition Oral 7th day” value ([1]; 100 mg/kg/day)?
The value was 28.9%.

What about the “Average survival time ± SD Subcutaneous” value ([1]; 100 mg/kg/day) of the same molecule?
Its value is 22 ± 2 days.

What about the “% Parasite inhibition Subcutaneous 5th day” value ([1]; 100 mg/kg/day) of the same molecule?
Its value is 38.6%.

And the “% Parasite inhibition Subcutaneous 7th day” value ([1]; 100 mg/kg/day)?
Its value is 21.7%.

What about the IC50 ([4]; read-out: IC50 against the W2 strain of P. falciparum) of the same molecule?
The IC50 was > 22.8 µM.

And the IC50 ([2]; K1, 48 h)?
The IC50 was 20.7 µM.

And the “Result Plasmodium falciparum K1” value [2]?
Its value is “I (IC50 > 20 μM = inactive (I))”.

And the IC50 (MRC-5 human fibroblasts; MRC5, 48 h, read-out: IC50 Human fibroblasts MRC-5)?
Its IC50 is 108 µM.

And the IC50 (MRC-5 human fibroblasts; MRC5, 48 h, read-out: IC50 MRC-5 cells)?
Its IC50 is 47.3 µg/mL.

What about the IC50 [5] of the same molecule?
Its IC50 is 2.5 to 4.1 µM.

With `CC1(C)C(=O)C=C[C@@]2(C)C1[C@@H](O)[C@@H](O)[C@]1(C)C2CC[C@@]2(C)[C@H](c3ccoc3)OC(=O)[C@H]3O[C@]321` (stereo partly drawn) [compound 5, 6α-hydroxydeacetylgedunin] as the molecule, how does the IC50 ([2]; K1 strain, 48 h incubation) read?
The IC50 was 5 µM.

What about the “Result Plasmodium falciparum K1” value [2] of the same molecule?
Its value is “A (0.1 < IC50 ≤ 5 μM = active (A))”.

What about the IC50 (MRC-5 human fibroblasts; [8]) of the same molecule?
Its IC50 is > 219 µM.

Which results are given for `CC(=O)O[C@@H]1C[C@H]2C(C)(C)C(=O)C=C[C@]2(C)[C@H]2CC[C@@]3(C)[C@H](c4ccoc4)OC(=O)[C@H]4O[C@]43[C@@]21C` [compound 6, Gedunin]?
suppression of P. berghei in mice (P. berghei strain ANKA; oral doses of 25 or 100 mg/kg/day): did not suppress; IC50 [6]: 0.4 to 2.5 µM

Which IC50 [3] does the source give for `CC(=O)O[C@@H]1C2C(C)(C)C(=O)C=C[C@]2(C)C2CC[C@@]3(C)[C@H](c4ccoc4)OC(=O)[C@H]4O[C@]43[C@]2(C)[C@@H]1O` (stereo partly drawn) [compound 7, andirolide H] here?
The IC50 was 4 µM.

With `CC(=O)O[C@@H]1[C@H](O)C2C(C)(C)C(=O)C=C[C@]2(C)C2CC[C@@]3(C)[C@H](c4ccoc4)OC(=O)[C@H]4O[C@]43[C@@]21C` (stereo partly drawn) [compound 8, 6α-hydroxygedunin] as the molecule, how does the IC50 [3] read?
Its IC50 is 90 µM.

What does the source list for `CC1(C)C(=O)C=C[C@@]2(C)C1C[C@@H](O)[C@]1(C)C2CC[C@@]2(C)[C@H](c3ccoc3)OC(=O)[C@H]3O[C@]321` (stereo partly drawn) [compound 9, 7-deacetylgedunin]?
IC50 against D6 (P. falciparum D6; D6): 2.6 µg/mL (≈ 5.9 µM); times less in vitro activity than gedunin (P. falciparum D6; D6 and W2, compared to gedunin): about 65 times; IC50 against W2 [4]: 1.3 µg/mL (≈ 2.95 µM); stability under physiologic conditions found in mice ([7]; physiologic conditions): unstable; stability under simulated gastric (low pH) conditions ([7]; simulated gastric (low pH)): low stability

With `CO[C@@H]1CC2C(C)(C)C(=O)C=C[C@]2(C)C2CC[C@@]3(C)[C@H](c4ccoc4)OC(=O)[C@H]4O[C@]43[C@@]21C` (stereo partly drawn) [compound 10, 7-deacetyl-7-O-methylgedunin] as the molecule, how does the “inhibition of parasitaemia of P. berghei ANKA in mice” value (P. berghei strain ANKA; oral, 50 mg/kg/day) read?
The value was 68%.

With `C=C1[C@@H]2CC[C@@]3(C)[C@H](c4ccoc4)OC(=O)C[C@]13O[C@H]1CC(=O)C(C)(C)[C@H](CC(=O)OC)[C@]12C` [methyl angolensate] as the molecule, how does the IC50 [3] read?
The IC50 was 12 to 15 µM.

With `C=C[C@H]1C[N@@]2CC[C@H]1C[C@H]2[C@H](O)c1ccnc2ccc(OC)cc12` [quinine sulfate, reference compound] as the molecule, how does the IC50 ([2]; K1 strain, 48 h incubation) read?
Its IC50 is 0.3 µM.

What about the “Result Plasmodium falciparum K1” value [2] of the same molecule?
The value was “A (0.1 < IC50 ≤ 5 μM = active (A))”.

Which “median effective dose (ED50)” value (P. berghei strain ANKA; mice infected with P. berghei strain ANKA) does the source give for `C=C[C@H]1C[N@@]2CC[C@H]1C[C@H]2[C@H](O)c1ccnc2ccc(OC)cc12` [quinine] here?
The value was 34 mg/kg/day.

With `C[C@H]1[C@H](OC(=O)CCC(=O)[O-])O[C@@H]2O[C@@]3(C)CC[C@H]4[C@H](C)CC[C@@H]1[C@@]24OO3.[Na+]` [sodium artesunate] as the molecule, how does the “doses at which infected mice exhibit recrudescence” value (Plasmodium vinckei) read?
The value was < 80 mg/kg/day.
